Source: the NIST ThermoML archive (doi:10.1021/je900311v)
Numbers after ± are expanded uncertainties.

Assays:
[1] = excess molar enthalpy (molar enthalpy of mixing); xn = mol fraction of the nth substance listed; conditions: 298.15 K, 101 kPa, Liquid, Calvet calorimetry
[2] = 298.15 K; 101.33 kPa; Liquid

CCCCCCC(C)=O [2-octanone] + CCCCCCCCCCCC
[1]
Conditions	excess molar enthalpy [kJ/mol]
x1 = 0.035	0.191 ± 0.003
x1 = 0.0677	0.344 ± 0.0047
x1 = 0.0982	0.466 ± 0.0062
x1 = 0.1267	0.569 ± 0.0074
x1 = 0.1564	0.664 ± 0.0086
x1 = 0.1841	0.742 ± 0.0095
x1 = 0.2101	0.806 ± 0.01
x1 = 0.2345	0.858 ± 0.011
x1 = 0.2613	0.908 ± 0.012
x1 = 0.2862	0.948 ± 0.012
x1 = 0.3096	0.979 ± 0.012
x1 = 0.3314	1.01 ± 0.013
x1 = 0.3519	1.02 ± 0.013
x1 = 0.3712	1.04 ± 0.013
x1 = 0.3931	1.05 ± 0.013
x1 = 0.4135	1.06 ± 0.013
x1 = 0.4325	1.07 ± 0.013
x1 = 0.4499	1.07 ± 0.013
x1 = 0.4504	1.07 ± 0.013
x1 = 0.4596	1.07 ± 0.013
x1 = 0.4698	1.07 ± 0.013
x1 = 0.4804	1.07 ± 0.013
x1 = 0.4915	1.07 ± 0.013
x1 = 0.5031	1.07 ± 0.013
x1 = 0.5138	1.07 ± 0.013
x1 = 0.525	1.06 ± 0.013
x1 = 0.5366	1.06 ± 0.013
x1 = 0.5488	1.05 ± 0.013
x1 = 0.5615	1.04 ± 0.013
x1 = 0.5749	1.03 ± 0.013
x1 = 0.5866	1.02 ± 0.013
x1 = 0.5986	1.01 ± 0.013
x1 = 0.6133	0.998 ± 0.013
x1 = 0.6244	0.984 ± 0.013
x1 = 0.6381	0.967 ± 0.012
x1 = 0.6525	0.948 ± 0.012
x1 = 0.6658	0.929 ± 0.012
x1 = 0.6795	0.909 ± 0.012
x1 = 0.6938	0.886 ± 0.011
x1 = 0.7072	0.863 ± 0.011
x1 = 0.721	0.836 ± 0.011
x1 = 0.7355	0.808 ± 0.01
x1 = 0.7505	0.776 ± 0.0099
x1 = 0.7661	0.743 ± 0.0095
x1 = 0.7808	0.71 ± 0.0091
x1 = 0.7961	0.673 ± 0.0087
x1 = 0.812	0.633 ± 0.0082
x1 = 0.8265	0.596 ± 0.0078
x1 = 0.8414	0.555 ± 0.0072
x1 = 0.857	0.51 ± 0.0067
x1 = 0.873	0.462 ± 0.0061
x1 = 0.8877	0.416 ± 0.0056
x1 = 0.9032	0.366 ± 0.005
x1 = 0.9191	0.312 ± 0.0043
x1 = 0.9356	0.254 ± 0.0036
x1 = 0.9509	0.197 ± 0.003
x1 = 0.9667	0.137 ± 0.0023
x1 = 0.9831	0.0699 ± 0.0016

CCCCCC(=O)CC [3-octanone] + CCCCCCCCCCCCCCCC
[1]
Conditions	excess molar enthalpy [kJ/mol]
x1 = 0.0448	0.229 ± 0.0034
x1 = 0.0857	0.413 ± 0.0056
x1 = 0.1233	0.561 ± 0.0073
x1 = 0.1578	0.683 ± 0.0088
x1 = 0.1899	0.783 ± 0.01
x1 = 0.2195	0.866 ± 0.011
x1 = 0.2522	0.949 ± 0.012
x1 = 0.2824	1.02 ± 0.013
x1 = 0.3102	1.07 ± 0.013
x1 = 0.336	1.11 ± 0.014
x1 = 0.3599	1.14 ± 0.014
x1 = 0.3822	1.17 ± 0.015
x1 = 0.4079	1.19 ± 0.015
x1 = 0.4316	1.2 ± 0.015
x1 = 0.4534	1.21 ± 0.015
x1 = 0.4737	1.22 ± 0.015
x1 = 0.4956	1.22 ± 0.015
x1 = 0.5158	1.22 ± 0.015
x1 = 0.5345	1.21 ± 0.015
x1 = 0.5517	1.2 ± 0.015
x1 = 0.5677	1.19 ± 0.015
x1 = 0.5827	1.18 ± 0.015
x1 = 0.5995	1.17 ± 0.015
x1 = 0.615	1.15 ± 0.015
x1 = 0.6293	1.14 ± 0.014
x1 = 0.6426	1.12 ± 0.014
x1 = 0.655	1.1 ± 0.014
x1 = 0.6775	1.06 ± 0.013
x1 = 0.69	1.04 ± 0.013
x1 = 0.7029	1.02 ± 0.013
x1 = 0.7163	0.993 ± 0.013
x1 = 0.7302	0.965 ± 0.012
x1 = 0.7423	0.94 ± 0.012
x1 = 0.7547	0.914 ± 0.012
x1 = 0.7676	0.884 ± 0.011
x1 = 0.7809	0.852 ± 0.011
x1 = 0.7947	0.817 ± 0.01
x1 = 0.809	0.777 ± 0.01
x1 = 0.8216	0.741 ± 0.0095
x1 = 0.8347	0.701 ± 0.009
x1 = 0.8482	0.657 ± 0.0085
x1 = 0.8621	0.61 ± 0.0079
x1 = 0.8741	0.568 ± 0.0074
x1 = 0.8865	0.522 ± 0.0069
x1 = 0.8993	0.473 ± 0.0063
x1 = 0.9124	0.419 ± 0.0056
x1 = 0.9259	0.362 ± 0.005
x1 = 0.9375	0.312 ± 0.0044
x1 = 0.9494	0.259 ± 0.0037
x1 = 0.9615	0.2 ± 0.0031
x1 = 0.974	0.138 ± 0.0024
x1 = 0.9868	0.0709 ± 0.0018

CCCCCCCCCCCC [dodecane]
Conditions	mass density [kg/m3]
[2]	745.28 ± 0.64
